Several values for one entry are separate records, joined by “and”; a condition that tells them apart may be missing. Equal values may be shown once.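 48-hour exposure; five concentrations; linearly interpolated endpoints. GI50 = concentration required for 50% inhibition of growth. TGI denotes the concentration required for complete inhibition of growth.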
Assays:
Test in all cases: inhibition of tumour cell growth, NCI panel, 48 h
CAKI-1 renal = tested on: CAKI-1 renal
DU-145 prostate = tested on: DU-145 prostate
HCT-15 colon = tested on: HCT-15 colon
HL-60(TB) leukemia = tested on: HL-60(TB) leukemia
HOP-92 NSCLC = tested on: HOP-92 NSCLC
IGROV1 ovarian = tested on: IGROV1 ovarian
NCI/ADR-RES ovarian = tested on: NCI/ADR-RES ovarian
SF-268 CNS = tested on: SF-268 CNS
SK-MEL-2 melanoma = tested on: SK-MEL-2 melanoma
UO-31 renal = tested on: UO-31 renal
SNB-75 CNS = tested on: SNB-75 CNS
786-0 renal = tested on: 786-0 renal
A498 renal = tested on: A498 renal
A549 NSCLC = tested on: A549 NSCLC
ACHN renal = tested on: ACHN renal
BT-549 breast = tested on: BT-549 breast
CCRF-CEM leukemia = tested on: CCRF-CEM leukemia
COLO 205 colon = tested on: COLO 205 colon
EKVX NSCLC = tested on: EKVX NSCLC
HCC-2998 colon = tested on: HCC-2998 colon
HCT-116 colon = tested on: HCT-116 colon
HOP-62 NSCLC = tested on: HOP-62 NSCLC
HS 578T breast = tested on: HS 578T breast
HT29 colon = tested on: HT29 colon
K-562 leukemia = tested on: K-562 leukemia
KM12 colon = tested on: KM12 colon
LOX IMVI melanoma = tested on: LOX IMVI melanoma
M14 melanoma = tested on: M14 melanoma
MALME-3M melanoma = tested on: MALME-3M melanoma
MCF7 breast = tested on: MCF7 breast
MDA-MB-231 breast = tested on: MDA-MB-231 breast
MDA-MB-435 = tested on: MDA-MB-435
MOLT-4 leukemia = tested on: MOLT-4 leukemia
NCI-H226 lung = tested on: NCI-H226 lung
NCI-H23 lung = tested on: NCI-H23 lung
NCI-H460 lung = tested on: NCI-H460 lung
NCI-H522 lung = tested on: NCI-H522 lung
OVCAR-3 ovarian = tested on: OVCAR-3 ovarian
OVCAR-5 ovarian = tested on: OVCAR-5 ovarian
OVCAR-8 ovarian = tested on: OVCAR-8 ovarian
PC-3 prostate = tested on: PC-3 prostate
RPMI-8226 leukemia = tested on: RPMI-8226 leukemia
RXF 393 renal = tested on: RXF 393 renal
SF-295 CNS = tested on: SF-295 CNS
SF-539 CNS = tested on: SF-539 CNS
SK-MEL-28 melanoma = tested on: SK-MEL-28 melanoma
SK-MEL-5 melanoma = tested on: SK-MEL-5 melanoma
SK-OV-3 ovarian = tested on: SK-OV-3 ovarian
SN12C renal = tested on: SN12C renal
SNB-19 CNS = tested on: SNB-19 CNS
SR leukemia = tested on: SR leukemia
SW-620 colon = tested on: SW-620 colon
T-47D breast = tested on: T-47D breast
TK-10 renal = tested on: TK-10 renal
U251 CNS = tested on: U251 CNS
UACC-257 melanoma = tested on: UACC-257 melanoma
UACC-62 melanoma = tested on: UACC-62 melanoma

Structure (SMILES): CCCCCCCCCCC(C[N+](C)(C)C/C=C/c1ccccc1)C(O)c1ccccc1 (configuration not stated)
- GI50 (CAKI-1 renal): 12.2 µM
- TGI (CAKI-1 renal): 34.1 µM
- GI50 (DU-145 prostate): 1.76 µM
- TGI (DU-145 prostate): 3.37 µM
- GI50 (HCT-15 colon): 2.29 µM
- TGI (HCT-15 colon): 6.31 µM
- GI50 (HL-60(TB) leukemia): 1.1 µM
- TGI (HL-60(TB) leukemia): 2.63 µM
- GI50 (HOP-92 NSCLC): 0.435 µM
- TGI (HOP-92 NSCLC): 2.08 µM
- GI50 (IGROV1 ovarian): 0.999 µM
- TGI (IGROV1 ovarian): 2.54 µM
- GI50 (NCI/ADR-RES ovarian): 7.5 µM
- TGI (NCI/ADR-RES ovarian): 34.6 µM
- GI50 (SF-268 CNS): 1.47 µM
- TGI (SF-268 CNS): 3.2 µM
- GI50 (SK-MEL-2 melanoma): 1.75 µM
- TGI (SK-MEL-2 melanoma): 3.24 µM
- GI50 (UO-31 renal): 2.09 µM
- TGI (UO-31 renal): 4.51 µM

Structure (SMILES): c1ccc2c(c1)[nH]c1c2nc2sccn21
- GI50 (SNB-75 CNS): 20.6 µM and 44.8 µM
- TGI (SNB-75 CNS): > 100 µM

Structure (SMILES): CC(=O)Nc1nc(SCc2ccccc2)c2ncn(C(C)=O)c2n1
- GI50 (786-0 renal): 72.5 µM
- TGI (786-0 renal): > 100 µM
- GI50 (A498 renal): 30.9 µM
- TGI (A498 renal): > 100 µM
- GI50 (A549 NSCLC): > 100 µM
- TGI (A549 NSCLC): > 100 µM
- GI50 (ACHN renal): 61.6 µM
- TGI (ACHN renal): > 100 µM
- GI50 (BT-549 breast): 85.3 µM
- TGI (BT-549 breast): > 100 µM
- GI50 (CAKI-1 renal): 28 µM
- TGI (CAKI-1 renal): > 100 µM
- GI50 (CCRF-CEM leukemia): > 100 µM
- TGI (CCRF-CEM leukemia): > 100 µM
- GI50 (COLO 205 colon): > 100 µM
- TGI (COLO 205 colon): > 100 µM
- GI50 (DU-145 prostate): > 100 µM
- TGI (DU-145 prostate): > 100 µM
- GI50 (EKVX NSCLC): 71.6 µM
- TGI (EKVX NSCLC): > 100 µM
- GI50 (HCC-2998 colon): > 100 µM
- TGI (HCC-2998 colon): > 100 µM
- GI50 (HCT-116 colon): > 100 µM
- TGI (HCT-116 colon): > 100 µM
- GI50 (HCT-15 colon): 93 µM
- TGI (HCT-15 colon): > 100 µM
- GI50 (HL-60(TB) leukemia): 63 µM
- TGI (HL-60(TB) leukemia): > 100 µM
- GI50 (HOP-62 NSCLC): 62.7 µM
- TGI (HOP-62 NSCLC): > 100 µM
- GI50 (HS 578T breast): 47.3 µM
- TGI (HS 578T breast): > 100 µM
- GI50 (HT29 colon): 63.4 µM
- TGI (HT29 colon): > 100 µM
- GI50 (IGROV1 ovarian): 79 µM
- TGI (IGROV1 ovarian): > 100 µM
- GI50 (K-562 leukemia): > 100 µM
- TGI (K-562 leukemia): > 100 µM
- GI50 (KM12 colon): > 100 µM
- TGI (KM12 colon): > 100 µM
- GI50 (LOX IMVI melanoma): 75.1 µM
- TGI (LOX IMVI melanoma): > 100 µM
- GI50 (M14 melanoma): 88.6 µM
- TGI (M14 melanoma): > 100 µM
- GI50 (MALME-3M melanoma): > 100 µM
- TGI (MALME-3M melanoma): > 100 µM
- GI50 (MCF7 breast): 91.8 µM
- TGI (MCF7 breast): > 100 µM
- GI50 (MDA-MB-231 breast): 77.3 µM
- TGI (MDA-MB-231 breast): > 100 µM
- GI50 (MDA-MB-435): > 100 µM
- TGI (MDA-MB-435): > 100 µM
- GI50 (MOLT-4 leukemia): > 100 µM
- TGI (MOLT-4 leukemia): > 100 µM
- GI50 (NCI-H226 lung): 45.4 µM
- TGI (NCI-H226 lung): > 100 µM
- GI50 (NCI-H23 lung): > 100 µM
- TGI (NCI-H23 lung): > 100 µM
- GI50 (NCI-H460 lung): > 100 µM
- TGI (NCI-H460 lung): > 100 µM
- GI50 (NCI-H522 lung): 72.6 µM
- TGI (NCI-H522 lung): > 100 µM
- GI50 (NCI/ADR-RES ovarian): 99.3 µM
- TGI (NCI/ADR-RES ovarian): > 100 µM
- GI50 (OVCAR-3 ovarian): 84.3 µM
- TGI (OVCAR-3 ovarian): > 100 µM
- GI50 (OVCAR-5 ovarian): > 100 µM
- TGI (OVCAR-5 ovarian): > 100 µM
- GI50 (OVCAR-8 ovarian): 76.5 µM
- TGI (OVCAR-8 ovarian): > 100 µM
- GI50 (PC-3 prostate): 72.2 µM
- TGI (PC-3 prostate): > 100 µM
- GI50 (RPMI-8226 leukemia): 55.6 µM
- TGI (RPMI-8226 leukemia): > 100 µM
- GI50 (RXF 393 renal): 30.9 µM
- TGI (RXF 393 renal): > 100 µM
- GI50 (SF-268 CNS): > 100 µM
- TGI (SF-268 CNS): > 100 µM
- GI50 (SF-295 CNS): 66.1 µM
- TGI (SF-295 CNS): > 100 µM
- GI50 (SF-539 CNS): 97.7 µM
- TGI (SF-539 CNS): > 100 µM
- GI50 (SK-MEL-28 melanoma): > 100 µM
- TGI (SK-MEL-28 melanoma): > 100 µM
- GI50 (SK-MEL-5 melanoma): 45.3 µM
- TGI (SK-MEL-5 melanoma): > 100 µM
- GI50 (SK-OV-3 ovarian): 55.9 µM
- TGI (SK-OV-3 ovarian): > 100 µM
- GI50 (SN12C renal): > 100 µM
- TGI (SN12C renal): > 100 µM
- GI50 (SNB-19 CNS): > 100 µM
- TGI (SNB-19 CNS): > 100 µM
- GI50 (SNB-75 CNS): 44.7 µM
- TGI (SNB-75 CNS): > 100 µM
- GI50 (SR leukemia): > 100 µM
- TGI (SR leukemia): > 100 µM
- GI50 (SW-620 colon): > 100 µM
- TGI (SW-620 colon): > 100 µM
- GI50 (T-47D breast): 50.7 µM
- TGI (T-47D breast): > 100 µM
- GI50 (TK-10 renal): 23.4 µM
- TGI (TK-10 renal): 78.3 µM
- GI50 (U251 CNS): 88.8 µM
- TGI (U251 CNS): > 100 µM
- GI50 (UACC-257 melanoma): > 100 µM
- TGI (UACC-257 melanoma): > 100 µM
- GI50 (UACC-62 melanoma): 61.8 µM
- TGI (UACC-62 melanoma): > 100 µM
- GI50 (UO-31 renal): 43.5 µM
- TGI (UO-31 renal): > 100 µM

Reference: PubChem BioAssay (NCI)
